{
  "source": "paper doi:10.1101/2025.08.21.671593v1",
  "about": "“Suppression and modulation mechanism underlying the flavonoid-induced inhibition of fibrillation of α-synuclein” (biorxiv, 2025)",
  "target": "T1, α-synuclein (α-Syn, αSyn), monomeric (Homo sapiens, UniProt P37840)",
  "T1 construct": "gene SNCA; purified, unfolded monomer",
  "test": "intrinsic tyrosine fluorescence quenching, modified Stern-Volmer plot",
  "details": "37 °C; protein 0.3 mg/mL, Cyanidin 2-30 μM; about 1:1; double-log; printed '8.4×10[5]'; paper calls it weak binding (mM range), which conflicts with this value",
  "data": [
    {"smiles": "Oc1cc(O)c2cc(O)c(-c3ccc(O)c(O)c3)[o+]c2c1", "note": "[Cyanidin]", "values": [
      {"measurement": "Ka", "value": 840000, "unit": "M⁻¹"}
    ]}
  ]
}
